The text below walks through data of ChEMBL document CHEMBL3046942, “Synthesis and biological activity of new cycloalkylthiophene-Schiff bases and their Cr(III) and Zn(II) complexes” (2010).

Experiment [1] deals with Shigella boydii. Description: Antibacterial activity against Shigella boydii type 11 at 10 ug after 24 hr by agar well diffusion method. The experiment is classed as functional. The following applies: type 11, 24 h, read-out: DIZ.
Experiment [2] relates to Listeria monocytogenes. Description: Antibacterial activity against Listeria monocytogenes ATCC 19115 at 10 ug after 24 hr by agar well diffusion method. The experiment is classed as functional. The following applies: ATCC 19115, 24 h, read-out: DIZ.
In experiment [3] the test system is Escherichia coli. The experiment is described as follows: Antibacterial activity against Escherichia coli ATCC 1280 at 10 ug after 24 hr by agar well diffusion method. Particulars: ATCC 1280, 24 h, read-out: DIZ. The format is functional.
Experiment [4] concerns Staphylococcus aureus. The experiment is described as follows: Antibacterial activity against Staphylococcus aureus ATCC 25923 at 10 ug after 24 hr by agar well diffusion method. The format is functional. The following applies: ATCC 25923, 24 h, read-out: DIZ.
In experiment [5] the test system is Pseudomonas putida. The experiment is described as follows: Antibacterial activity against Pseudomonas putida at 10 ug after 24 hr by agar well diffusion method. The experiment is classed as functional. The following applies: read-out: DIZ.
Experiment [6] deals with Proteus. The experiment is described as follows: Antibacterial activity against Proteus OX2 Wrah at 10 ug after 24 hr by agar well diffusion method. The format is functional. Particulars: read-out: DIZ.
Experiment [7] relates to Shigella boydii. Description: Antibacterial activity against Shigella boydii type 16 at 10 ug after 24 hr by agar well diffusion method. The experiment is classed as functional. Particulars: type 16, 24 h, read-out: DIZ.
Experiment [8] concerns Shigella boydii. The experiment is described as follows: Antibacterial activity against Shigella boydii type 6 RSKK-96043 at 10 ug after 24 hr by agar well diffusion method. Particulars: type 6 RSKK-96043, 24 h, read-out: DIZ. The format is functional.
In experiment [9] the test system is Salmonella typhimurium. Description: Antibacterial activity against Salmonella enterica subsp. enterica serovar Typhi H NCTC 901.8394 at 10 ug after 24 hr by agar well diffusion method. The experiment is classed as functional. The following applies: H NCTC 901.8394, 24 h, read-out: DIZ.
The subject of experiment [10] is Shigella boydii. The experiment is described as follows: Antibacterial activity against Shigella boydii type 11 at 30 ug after 24 hr by agar well diffusion method. The experiment is classed as functional. Particulars: type 11, 24 h, read-out: DIZ.
For experiment [11], the system named is Escherichia coli. The experiment is described as follows: Antibacterial activity against Escherichia coli ATCC 1280 at 30 ug after 24 hr by agar well diffusion method. The format is functional. Particulars: ATCC 1280, 24 h, read-out: DIZ.
For experiment [12], the system named is Staphylococcus aureus. Description: Antibacterial activity against Staphylococcus aureus ATCC 25923 at 30 ug after 24 hr by agar well diffusion method. The format is functional. The following applies: ATCC 25923, 24 h, read-out: DIZ.
Experiment [13] relates to Listeria monocytogenes. The experiment is described as follows: Antibacterial activity against Listeria monocytogenes ATCC 19115 at 30 ug after 24 hr by agar well diffusion method. The experiment is classed as functional. Particulars: ATCC 19115, 24 h, read-out: DIZ.
In experiment [14] the test system is Proteus. The experiment is described as follows: Antibacterial activity against Proteus OX2 Wrah at 30 ug after 24 hr by agar well diffusion method. The following applies: read-out: DIZ. The format is functional.
Experiment [15] relates to Shigella boydii. The experiment is described as follows: Antibacterial activity against Shigella boydii type 16 at 30 ug after 24 hr by agar well diffusion method. Particulars: type 16, 24 h, read-out: DIZ. The format is functional.
Experiment [16] relates to Pseudomonas putida. Description: Antibacterial activity against Pseudomonas putida at 30 ug after 24 hr by agar well diffusion method. The experiment is classed as functional. Particulars: read-out: DIZ.
Experiment [17] deals with Shigella boydii. The experiment is described as follows: Antibacterial activity against Shigella boydii type 6 RSKK-96043 at 30 ug after 24 hr by agar well diffusion method. The experiment is classed as functional. Particulars: type 6 RSKK-96043, 24 h, read-out: DIZ.
For experiment [18], the system named is Salmonella typhimurium. Description: Antibacterial activity against Salmonella enterica subsp. enterica serovar Typhi H NCTC 901.8394 at 30 ug after 24 hr by agar well diffusion method. The following applies: H NCTC 901.8394, 24 h, read-out: DIZ. The format is functional.
The test system of experiment [19] is Shigella boydii. Description: Antibacterial activity against Shigella boydii type 6 RSKK-96043 at 5 ug after 24 hr by agar well diffusion method. The format is functional. Particulars: type 6 RSKK-96043, 24 h, read-out: DIZ.
For experiment [20], the system named is Proteus. The experiment is described as follows: Antibacterial activity against Proteus OX2 Wrah at 5 ug after 24 hr by agar well diffusion method. The experiment is classed as functional. Particulars: read-out: DIZ.
Experiment [21] relates to Listeria monocytogenes. Description: Antibacterial activity against Listeria monocytogenes ATCC 19115 at 5 ug after 24 hr by agar well diffusion method. The experiment is classed as functional. Particulars: ATCC 19115, 24 h, read-out: DIZ.
The test system of experiment [22] is Salmonella typhimurium. The experiment is described as follows: Antibacterial activity against Salmonella enterica subsp. enterica serovar Typhi H NCTC 901.8394 at 5 ug after 24 hr by agar well diffusion method. The experiment is classed as functional. Particulars: H NCTC 901.8394, 24 h, read-out: DIZ.
The subject of experiment [23] is Shigella boydii. The experiment is described as follows: Antibacterial activity against Shigella boydii type 11 at 5 ug after 24 hr by agar well diffusion method. The format is functional. Particulars: type 11, 24 h, read-out: DIZ.
The test system of experiment [24] is Staphylococcus aureus. The experiment is described as follows: microbe, parasite or virus in culture. The following applies: ATCC 25923, 24 h, read-out: DIZ.
For experiment [25], the system named is Pseudomonas putida. Description: Antibacterial activity against Pseudomonas putida at 5 ug after 24 hr by agar well diffusion method. The format is functional. The following applies: read-out: DIZ.
Experiment [26] deals with Shigella boydii. The experiment is described as follows: Antibacterial activity against Shigella boydii type 16 at 5 ug after 24 hr by agar well diffusion method. The experiment is classed as functional. Particulars: type 16, 24 h, read-out: DIZ.
Experiment [27] relates to Proteus. The experiment is described as follows: Antibacterial activity against Proteus OX2 Wrah at 25 ug after 24 hr by agar well diffusion method. The following applies: read-out: DIZ. The experiment is classed as functional.
The subject of experiment [28] is Shigella boydii. The experiment is described as follows: Antibacterial activity against Shigella boydii type 11 at 25 ug after 24 hr by agar well diffusion method. The following applies: type 11, 24 h, read-out: DIZ. The format is functional.
The subject of experiment [29] is Shigella boydii. Description: Antibacterial activity against Shigella boydii type 16 at 25 ug after 24 hr by agar well diffusion method. Particulars: type 16, 24 h, read-out: DIZ. The experiment is classed as functional.
For experiment [30], the system named is Shigella boydii. Description: Antibacterial activity against Shigella boydii type 6 RSKK-96043 at 25 ug after 24 hr by agar well diffusion method. The format is functional. The following applies: type 6 RSKK-96043, 24 h, read-out: DIZ.
In experiment [31] the test system is Pseudomonas putida. Description: Antibacterial activity against Pseudomonas putida at 25 ug after 24 hr by agar well diffusion method. The format is functional. The following applies: read-out: DIZ.
The test system of experiment [32] is Listeria monocytogenes. The experiment is described as follows: Antibacterial activity against Listeria monocytogenes ATCC 19115 at 25 ug after 24 hr by agar well diffusion method. The experiment is classed as functional. The following applies: ATCC 19115, 24 h, read-out: DIZ.
For experiment [33], the system named is Staphylococcus aureus. The experiment is described as follows: Antibacterial activity against Staphylococcus aureus ATCC 25923 at 25 ug after 24 hr by agar well diffusion method. The experiment is classed as functional. The following applies: ATCC 25923, 24 h, read-out: DIZ.
The test system of experiment [34] is Escherichia coli. The experiment is described as follows: microbe, parasite or virus in culture. The following applies: ATCC 1280, 24 h, read-out: DIZ.
Experiment [35] deals with Salmonella typhimurium. Description: Antibacterial activity against Salmonella enterica subsp. enterica serovar Typhi H NCTC 901.8394 at 25 ug after 24 hr by agar well diffusion method. The format is functional. Particulars: H NCTC 901.8394, 24 h, read-out: DIZ.

With `CC1(C)S[C@@H]2[C@H](NC(=O)[C@H](N)c3ccccc3)C(=O)N2[C@H]1C(=O)O` [AMPICILLIN], the zone of inhibition at 10 µg/disc in experiment [1] was 20 mm; in experiment [2], 16 mm; in experiment [3] it was 10 mm; in experiment [4] it was 30 mm; in [5], 8 mm; in experiment [6] it was 9 mm. Besides, the zone of inhibition at 10 µg/disc in experiment [7] came out at 16 mm; in experiment [8], 6 mm; in experiment [9], 11 mm.
As for `O=C(N[C@H](CO)[C@H](O)c1ccc([N+](=O)[O-])cc1)C(Cl)Cl` [CHLORAMPHENICOL], the zone of inhibition at 30 µg/disc in experiment [10] turned out to be 18 mm; in [11] it was 30 mm; in experiment [12] it was 25 mm; in [13] it was 18 mm; in experiment [14], 27 mm; in experiment [15], 22 mm. For the same molecule, the results for the zone of inhibition at 30 µg/disc in [16], in experiment [17] and in [18] were 12 mm, 18 mm and 19 mm, respectively.
For the molecule `O=C(O)c1cn(C2CC2)c2cc(N3CCNCC3)c(F)cc2c1=O` [CIPROFLOXACIN], the zone of inhibition at 5 µg/disc in experiment [19] came to 30 mm; in experiment [20] it was 27 mm; in experiment [21], 17 mm; in [22], 23 mm; in experiment [23], 25 mm; in experiment [24], 25 mm. Moreover, the zone of inhibition at 5 µg/disc in experiment [25] and in experiment [26] was 20 mm in each case.
In the case of `NC[C@H]1O[C@H](O[C@H]2[C@H](O)[C@@H](O[C@H]3O[C@H](CO)[C@@H](O)[C@H](N)[C@H]3O)[C@H](N)C[C@@H]2N)[C@H](O)[C@@H](O)[C@@H]1O` [KANAMYCIN], the zone of inhibition at 30 µg/disc was determined as 14 mm in experiment [10]; 25 mm in [11]; 25 mm in experiment [12]; 15 mm in experiment [13]; 25 mm in experiment [14]; 16 mm in experiment [15]. Besides, the figures for the zone of inhibition at 30 µg/disc in experiment [16], in experiment [17] and in experiment [18] were 14 mm, 15 mm and 20 mm, respectively.
For the molecule `Cc1cc(NS(=O)(=O)c2ccc(N)cc2)no1` [SULFAMETHOXAZOLE], the zone of inhibition at 25 µg/disc in [27] is 20 mm; in [28] it was 19 mm; in [29] it was 20 mm; in experiment [30], 20 mm; in [31] it was 18 mm; in experiment [32], 11 mm. The zone of inhibition at 25 µg/disc amounted to 24 mm in experiment [33], 18 mm in experiment [34] and 17 mm in [35].
